Experimental data reported in article doi:10.1101/2023.11.02.565309v1 (biorxiv, 2023).

Biological target: WT GluA2(Q)i (Rattus norvegicus, UniProt P19491)
Assay type: cell-based
Settings: positive allosteric modulator at 100 µM

Chain of WT GluA2(Q)i (P19491 22-883 isoform P19491-2): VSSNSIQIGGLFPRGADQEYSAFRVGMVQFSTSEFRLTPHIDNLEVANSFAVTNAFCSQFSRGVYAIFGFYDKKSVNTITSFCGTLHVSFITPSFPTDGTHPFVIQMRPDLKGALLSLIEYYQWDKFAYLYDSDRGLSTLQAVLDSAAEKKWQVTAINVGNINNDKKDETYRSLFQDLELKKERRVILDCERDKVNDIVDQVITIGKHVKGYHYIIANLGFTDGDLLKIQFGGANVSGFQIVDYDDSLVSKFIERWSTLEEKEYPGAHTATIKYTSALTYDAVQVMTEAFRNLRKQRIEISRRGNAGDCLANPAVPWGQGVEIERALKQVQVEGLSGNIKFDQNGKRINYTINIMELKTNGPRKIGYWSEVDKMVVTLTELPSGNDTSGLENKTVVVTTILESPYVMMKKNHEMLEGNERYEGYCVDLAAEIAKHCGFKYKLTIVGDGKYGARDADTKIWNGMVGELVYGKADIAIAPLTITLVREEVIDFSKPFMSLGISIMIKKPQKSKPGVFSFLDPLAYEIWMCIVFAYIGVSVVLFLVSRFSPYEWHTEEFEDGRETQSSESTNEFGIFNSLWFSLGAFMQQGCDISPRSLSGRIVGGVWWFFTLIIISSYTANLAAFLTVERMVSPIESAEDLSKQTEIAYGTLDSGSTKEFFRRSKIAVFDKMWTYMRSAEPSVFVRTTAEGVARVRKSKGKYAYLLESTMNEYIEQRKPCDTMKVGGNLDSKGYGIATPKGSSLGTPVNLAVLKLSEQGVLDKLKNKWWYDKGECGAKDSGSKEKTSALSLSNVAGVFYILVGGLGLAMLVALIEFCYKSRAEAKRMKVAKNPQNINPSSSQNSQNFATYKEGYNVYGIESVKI

fold potentiation: ~ 3 fold
Structure (SMILES): NS(=O)(=O)c1cc2c(cc1Cl)NC(C1CC3C=CC1C3)NS2(=O)=O (stereo not shown) [cyclothiazide]
